Reference: the NIST ThermoML archive (doi:10.1021/je100610v)
Numbers after ± are expanded uncertainties.

Assay: molar heat capacity at constant pressure; xn = mol fraction of the nth substance listed
Conditions: 101 kPa, Liquid

ClCCCCCCCl [1,6-dichlorohexane] + CCCCCCC
molar heat capacity at constant pressure [J/K/mol]
Conditions | x1 = 0.1033 | x1 = 0.2005 | x1 = 0.3004 | x1 = 0.397 | x1 = 0.5025 | x1 = 0.5978 | x1 = 0.7012 | x1 = 0.7975 | x1 = 0.8993 | x1 = 1
293.15 K | 224.18 ± 1.7 | 225.58 ± 1.8 | 226.93 ± 1.8 | 228.73 ± 1.8 | 230.53 ± 1.8 | 232.22 ± 1.8 | 233.79 ± 1.8 | 235.58 ± 1.8 | 237.46 ± 1.8 | 239.21 ± 1.9
294.15 K | 224.47 ± 1.7 | 225.71 ± 1.8 | 227.22 ± 1.8 | 229.08 ± 1.8 | 230.89 ± 1.8 | 232.55 ± 1.8 | 234 ± 1.8 | 235.86 ± 1.8 | 237.73 ± 1.8 | 239.5 ± 1.9
295.15 K | 224.85 ± 1.7 | 226.27 ± 1.8 | 227.61 ± 1.8 | 229.51 ± 1.8 | 231.34 ± 1.8 | 232.94 ± 1.8 | 234.33 ± 1.8 | 236.23 ± 1.8 | 238.1 ± 1.8 | 239.69 ± 1.9
296.15 K | 225.28 ± 1.8 | 226.73 ± 1.8 | 227.98 ± 1.8 | 229.89 ± 1.8 | 231.84 ± 1.8 | 233.25 ± 1.8 | 234.73 ± 1.8 | 236.51 ± 1.8 | 238.39 ± 1.9 | 240.02 ± 1.9
297.15 K | 225.7 ± 1.8 | 227.04 ± 1.8 | 228.31 ± 1.8 | 230.27 ± 1.8 | 231.98 ± 1.8 | 233.48 ± 1.8 | 235.05 ± 1.8 | 236.81 ± 1.8 | 238.57 ± 1.9 | 240.35 ± 1.9
298.15 K | 226.02 ± 1.8 | 227.35 ± 1.8 | 228.65 ± 1.8 | 230.41 ± 1.8 | 232.13 ± 1.8 | 233.77 ± 1.8 | 235.36 ± 1.8 | 237.1 ± 1.8 | 238.92 ± 1.9 | 240.64 ± 1.9
299.15 K | 226.42 ± 1.8 | 227.84 ± 1.8 | 228.96 ± 1.8 | 230.75 ± 1.8 | 232.24 ± 1.8 | 234 ± 1.8 | 235.65 ± 1.8 | 237.33 ± 1.8 | 239.06 ± 1.9 | 240.85 ± 1.9
300.15 K | 226.82 ± 1.8 | 228.08 ± 1.8 | 229.21 ± 1.8 | 231.06 ± 1.8 | 232.49 ± 1.8 | 234.22 ± 1.8 | 236.05 ± 1.8 | 237.68 ± 1.8 | 239.39 ± 1.9 | 241.15 ± 1.9
301.15 K | 227.16 ± 1.8 | 228.49 ± 1.8 | 229.61 ± 1.8 | 231.57 ± 1.8 | 232.94 ± 1.8 | 234.6 ± 1.8 | 236.34 ± 1.8 | 238.04 ± 1.8 | 239.79 ± 1.9 | 241.46 ± 1.9
302.15 K | 227.48 ± 1.8 | 228.83 ± 1.8 | 230 ± 1.8 | 231.8 ± 1.8 | 233.35 ± 1.8 | 234.96 ± 1.8 | 236.63 ± 1.8 | 238.29 ± 1.9 | 240.08 ± 1.9 | 241.8 ± 1.9
303.15 K | 227.86 ± 1.8 | 229.13 ± 1.8 | 230.36 ± 1.8 | 232.08 ± 1.8 | 233.73 ± 1.8 | 235.31 ± 1.8 | 236.93 ± 1.8 | 238.61 ± 1.9 | 240.37 ± 1.9 | 242.06 ± 1.9
304.15 K | 228.19 ± 1.8 | 229.46 ± 1.8 | 230.7 ± 1.8 | 232.56 ± 1.8 | 234.04 ± 1.8 | 235.48 ± 1.8 | 237.2 ± 1.8 | 238.86 ± 1.9 | 240.64 ± 1.9 | 242.34 ± 1.9
305.15 K | 228.57 ± 1.8 | 229.83 ± 1.8 | 230.91 ± 1.8 | 232.74 ± 1.8 | 234.33 ± 1.8 | 235.88 ± 1.8 | 237.53 ± 1.8 | 239.21 ± 1.9 | 240.92 ± 1.9 | 242.62 ± 1.9
306.15 K | 228.88 ± 1.8 | 230.1 ± 1.8 | 231.36 ± 1.8 | 233.13 ± 1.8 | 234.4 ± 1.8 | 236.03 ± 1.8 | 237.84 ± 1.8 | 239.44 ± 1.9 | 241.2 ± 1.9 | 242.83 ± 1.9
307.15 K | 229.3 ± 1.8 | 230.51 ± 1.8 | 231.65 ± 1.8 | 233.51 ± 1.8 | 235.07 ± 1.8 | 236.5 ± 1.8 | 238.18 ± 1.8 | 239.76 ± 1.9 | 241.48 ± 1.9 | 243.21 ± 1.9
308.15 K | 229.71 ± 1.8 | 230.91 ± 1.8 | 232.08 ± 1.8 | 233.76 ± 1.8 | 235.33 ± 1.8 | 236.85 ± 1.8 | 238.49 ± 1.9 | 240.12 ± 1.9 | 241.83 ± 1.9 | 243.49 ± 1.9
309.15 K | 230.05 ± 1.8 | 231.19 ± 1.8 | 232.35 ± 1.8 | 234.03 ± 1.8 | 235.45 ± 1.8 | 237.17 ± 1.8 | 238.74 ± 1.9 | 240.37 ± 1.9 | 242.06 ± 1.9 | 243.73 ± 1.9
310.15 K | 230.4 ± 1.8 | 231.55 ± 1.8 | 232.73 ± 1.8 | 234.35 ± 1.8 | 235.77 ± 1.8 | 237.52 ± 1.8 | 239.07 ± 1.9 | 240.64 ± 1.9 | 242.36 ± 1.9 | 244 ± 1.9
311.15 K | 230.86 ± 1.8 | 231.97 ± 1.8 | 233.11 ± 1.8 | 234.88 ± 1.8 | 236.41 ± 1.8 | 237.89 ± 1.8 | 239.43 ± 1.9 | 241.08 ± 1.9 | 242.73 ± 1.9 | 244.35 ± 1.9
312.15 K | 231.16 ± 1.8 | 232.33 ± 1.8 | 233.45 ± 1.8 | 235.01 ± 1.8 | 236.75 ± 1.8 | 238.16 ± 1.8 | 239.72 ± 1.9 | 241.32 ± 1.9 | 243.02 ± 1.9 | 244.68 ± 1.9
313.15 K | 231.55 ± 1.8 | 232.68 ± 1.8 | 233.79 ± 1.8 | 235.43 ± 1.8 | 236.93 ± 1.8 | 238.39 ± 1.9 | 240.06 ± 1.9 | 241.64 ± 1.9 | 243.28 ± 1.9 | 244.91 ± 1.9
